Results on 9 compounds are retold here after US12227501B2, “3-amino-2-[2-(acylamino)pyridin-4-yl]-1,5,6,7-tetrahydro-4h-pyrrolo[3,2-c]pyridin-4-one as CSNK1 inhibitors” (Bayer Aktiengesellschaft, priority 2019, dated 2025).

What all share (assay type): biochemical
Experiment [1] addresses wild-type Epidermal Growth Factor Receptor (EGFR) (Homo sapiens (Human), UniProt P00533). Put plainly: WT-EGFR Kinase Assay (TR-FRET, 2 mM ATP). To be noted: EGFR Wildtyp- 2 mM ATP IC50 [mol/l] (median). A general note: TR-FRET usually uses a lanthanide donor and a delayed reading to cut background.
A further experiment deals with human CSNK1D (Homo sapiens (Human), UniProt P48730). Nature of the experiment: CSNK1D Assay (ADP-Glo, 1 μM ATP). To be noted: read-out: CSNK1D IC50 [mol/l] (median). Here is the method:
CSNK1 D-inhibitory activity of compounds of the present invention in presence of 1 μM adenosine-tri-phosphate (ATP) was quantified employing the CSNK1D assay as described in the following paragraphs. In essence, the enzyme activity is measured by quantification of the adenosine-di-phosphate (ADP), which is generated as a co-product of the enzyme reaction, via the “ADP-Glo™ Kinase Assay” kit from the company Promega. This detection system works as follows: In a first step the ATP not consumed in the kinase reaction is quantitatively converted to cAMP employing an adenylate cyclase (“ADP-Glo-reagent”), then the adenylate cyclase is stopped and the ADP generated in the kinase reaction converted to ATP which generates in a luciferase-based reaction a glow-luminescence signal (“Kinase Detection Reagent”). Recombinant fusion protein of N-terminal Glutathion-S-Transferase (GST) and full-length human CSNK1D, expressed by baculovirus infected insect cells and purified via Glutathion affinity chromatography, was purchased from Life Technologies (product no. PV3665) and used as enzyme. As substrate for the kinase reaction the biotinylated peptide Btn-Ahx-[…] (C-terminus in amide form) was used which can be purchased e.g. from the company Biosyntan (Berlin-Buch, Germany).
For the assay 50 nl of a 100 fold concentrated solution of the test compound in DMSO was pipetted into a white 1536-well microtiter plate (Greiner Bio-One, Frickenhausen, Germany), 2 μL of a solution of CSNK1D in aqueous assay buffer [50 mM HEPES pH 7.5, 10% (v/v) glycerol, 10 mM MgCl2, 50 mM NaCl, 1 mM dithiothreitol, 0.01% (w/v) bovine serum albumin, 0.01% (v/v) Triton X-100] were added and the mixture was incubated for 15 min at 22° C. to allow pre-binding of the test compounds to the enzyme before the start of the kinase reaction. […] The concentration of CSNK1 D was adjusted depending of the activity of the enzyme lot and was chosen appropriate to have the assay in the linear range, a typical concentration is about 0.5 ng/μL. The reaction was stopped by the addition of 2.5 μL of “ADP-Glo-reagent” (1:1.5 fold diluted with water) and the resulting mixture was incubated at 22° C. for 1 h to convert the ATP not consumed in the kinase reaction completely […]. Subsequently 2.5 μL of the “kinase detection reagent” (1.2 fold more concentrated than recommended by the producer) were added, the resulting mixture was incubated at 22° C. for 1 h and then the luminescence measured with a suitable measurement instrument (e.g. Viewlux™ from Perkin-Elmer). The amount of emitted light was taken as a measure for the amount of ADP generated and thereby for the activity of the CSNK1D.

For experiment [2], the target named is T1, human CSNK1A1 (Homo sapiens (Human), UniProt P48729). Put plainly: CSNK1A1 Assay 2 (ADP-Glo, 1 μM ATP). To be noted: substrate biotin-Ahx-KRRRAL-pS-VASLPGL, read-out: CSNK1A1 Assay 2 IC50 [mol/l] (median). How it is done: CSNK1A1-inhibitory activity of compounds of the present invention in presence of 1 μM adenosine-tri-phosphate (ATP) was quantified employing the CSNK1A1 assay as described in the following paragraphs. In essence, the enzyme activity is measured by quantification of the adenosine-di-phosphate (ADP), which is generated as a co-product of the enzyme reaction, via the “ADP-Glo™ Kinase Assay” kit from the company Promega. This detection system works as follows: In a first step the ATP not consumed in the kinase reaction is quantitatively converted to cAMP employing an adenylate cyclase (“ADP-Glo-reagent”), then the adenylate cyclase is stopped and the ADP generated in the kinase reaction converted to ATP which generates in a luciferase-based reaction a glow-luminescence signal (“Kinase Detection Reagent”). Recombinant fusion protein of N-terminal Glutathion-S-Transferase (GST) and full-length human CSNK1A1, expressed by baculovirus infected insect cells and purified via Glutathion affinity chromatography, was purchased from Life Technologies (product no. PV4174) and used as enzyme. As substrate for the kinase reaction the biotinylated peptide biotin-Ahx-KRRRAL-pS-VASLPGL (C-terminus in amide form) was used which can be purchased e.g. from the company Biosyntan (Berlin-Buch, Germany).
For the assay 50 nl of a 100 fold concentrated solution of the test compound in DMSO was pipetted into a white 1536-well microtiter plate (Greiner Bio-One, Frickenhausen, Germany), 2 μL of a solution of CSNK1A1 in aqueous assay buffer [50 mM HEPES pH 7.5, 10% (v/v) glycerol, 10 mM MgCl2, 50 mM NaCl, 1 mM dithiothreitol, 0.01% (w/v) bovine serum albumin, 0.01% (v/v) Triton X-100] were added and the mixture was incubated for 15 min at 22° C. to allow pre-binding of the test compounds to the enzyme before the start of the kinase reaction. […] The concentration of CSNK1A1 was adjusted depending of the activity of the enzyme lot and was chosen appropriate to have the assay in the linear range, a typical concentrations are about 0.0375 ng/μL. The reaction was stopped by the addition of 2.5 μL of “ADP-Glo-reagent” (1:1.5 fold diluted with water) and the resulting mixture was incubated at 22° C. for 1 h to convert the ATP not consumed in the kinase reaction completely […]. Subsequently 2.5 μL of the “kinase detection reagent” (1.2 fold more concentrated than recommended by the producer) were added, the resulting mixture was incubated at 22° C. for 1 h and then the luminescence measured with a suitable measurement instrument (e.g. Viewlux™ from Perkin-Elmer). The amount of emitted light was taken as a measure for the amount of ADP generated and thereby for the activity of the CSNK1A1.

Experiment [3] deals with T1, human CSNK1A1. Nature of the experiment: CSNK1A1 High ATP Assay (ADP-Glo, 1 mM ATP). To be noted: read-out: CSNK1A1 high ATP assay IC50 [mol/l] (median). Here is the method: CSNK1A1-inhibitory activity of compounds of the present invention in presence of 1 mM adenosine-tri-phosphate (ATP) was quantified employing the CSNK1A1-high-ATP-assay as described in the following paragraphs. In essence, the enzyme activity is measured by quantification of the adenosine-di-phosphate (ADP), which is generated as a co-product of the enzyme reaction, via the “ADP-Glo™ Kinase Assay” kit from the company Promega. This detection system works as follows: In a first step the ATP not consumed in the kinase reaction is quantitatively converted to cAMP employing an adenylate cyclase (“ADP-Glo-reagent”), then the adenylate cyclase is stopped and the ADP generated in the kinase reaction converted to ATP which generates in a luciferase-based reaction a glow-luminescence signal (“Kinase Detection Reagent”).
Recombinant fusion protein of N-terminal Glutathion-S-Transferase (GST) and full-length human CSNK1A1, expressed by baculovirus infected insect cells and purified via Glutathion affinity chromatography, was purchased from Life Technologies (product no. PV4174) and used as enzyme. As substrate for the kinase reaction the biotinylated peptide biotin-Ahx-KRRRAL-pS-VASLPGL (C-terminus in amide form) was used which can be purchased e.g. from the company Biosyntan (Berlin-Buch, Germany).
For the assay 50 nl of a 100 fold concentrated solution of the test compound in DMSO was pipetted into a white low volume 384-well microtiter plate (Greiner Bio-One, Frickenhausen, Germany), 2 μL of a solution of CSNK1A1 in aqueous assay buffer [50 mM HEPES pH 7.5, 10% (v/v) glycerol, 10 mM MgCl2, 50 mM NaCl, 1 mM dithiothreitol, 0.01% (w/v) bovine serum albumin, 0.01% (v/v) Triton X-100] were added and the mixture was incubated for 15 min at 22° C. to allow pre-binding of the test compounds to the enzyme before the start of the kinase reaction. […] The concentration of CSNK1A1 was adjusted depending of the activity of the enzyme lot and was chosen appropriate to have the assay in the linear range, a typical concentration is about 0.4 ng/μL. The reaction was stopped by the addition of 2.5 μL of “ADP-Glo-reagent” (1:1.5 fold diluted with water) and the resulting mixture was incubated at 22° C. for 1 h to convert the ATP not consumed in the kinase reaction completely […]. Subsequently 2.5 μL of the “kinase detection reagent” (1.2 fold more concentrated than recommended by the producer) were added, the resulting mixture was incubated at 22° C. for 1 h and then the luminescence measured with a suitable measurement instrument (e.g. Viewlux™ from Perkin-Elmer). The amount of emitted light was taken as a measure for the amount of ADP generated and thereby for the activity of the CSNK1A1.

Some results are limits rather than exact numbers.

Chain of human CSNK1D (P48730 whole entry): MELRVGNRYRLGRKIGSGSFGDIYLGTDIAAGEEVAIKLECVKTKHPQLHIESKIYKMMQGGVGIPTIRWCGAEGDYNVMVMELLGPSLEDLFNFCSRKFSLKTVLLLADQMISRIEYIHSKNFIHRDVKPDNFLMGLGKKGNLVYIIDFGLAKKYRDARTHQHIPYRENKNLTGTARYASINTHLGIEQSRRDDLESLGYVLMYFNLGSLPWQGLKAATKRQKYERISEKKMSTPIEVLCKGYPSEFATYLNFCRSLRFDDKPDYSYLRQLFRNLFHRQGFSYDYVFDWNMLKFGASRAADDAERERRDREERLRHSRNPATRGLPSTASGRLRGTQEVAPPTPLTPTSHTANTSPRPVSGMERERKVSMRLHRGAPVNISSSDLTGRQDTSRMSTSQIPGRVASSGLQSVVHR
Chain of wild-type Epidermal Growth Factor Receptor (EGFR) (P00533 669-1210): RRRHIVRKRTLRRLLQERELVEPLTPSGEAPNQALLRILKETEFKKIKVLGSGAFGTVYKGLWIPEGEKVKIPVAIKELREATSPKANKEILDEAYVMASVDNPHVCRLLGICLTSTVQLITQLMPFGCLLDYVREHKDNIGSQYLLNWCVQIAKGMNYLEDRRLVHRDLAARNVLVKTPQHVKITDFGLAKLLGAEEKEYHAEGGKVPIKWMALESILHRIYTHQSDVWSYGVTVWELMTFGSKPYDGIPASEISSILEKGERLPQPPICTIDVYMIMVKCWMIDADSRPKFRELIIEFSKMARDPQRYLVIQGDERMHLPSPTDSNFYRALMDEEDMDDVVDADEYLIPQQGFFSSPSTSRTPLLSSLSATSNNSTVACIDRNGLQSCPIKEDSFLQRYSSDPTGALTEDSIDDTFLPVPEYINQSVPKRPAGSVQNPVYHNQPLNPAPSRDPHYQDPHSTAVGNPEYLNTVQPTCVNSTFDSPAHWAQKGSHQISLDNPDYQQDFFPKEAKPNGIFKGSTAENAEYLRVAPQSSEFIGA
T1 sequence (P48729 whole entry): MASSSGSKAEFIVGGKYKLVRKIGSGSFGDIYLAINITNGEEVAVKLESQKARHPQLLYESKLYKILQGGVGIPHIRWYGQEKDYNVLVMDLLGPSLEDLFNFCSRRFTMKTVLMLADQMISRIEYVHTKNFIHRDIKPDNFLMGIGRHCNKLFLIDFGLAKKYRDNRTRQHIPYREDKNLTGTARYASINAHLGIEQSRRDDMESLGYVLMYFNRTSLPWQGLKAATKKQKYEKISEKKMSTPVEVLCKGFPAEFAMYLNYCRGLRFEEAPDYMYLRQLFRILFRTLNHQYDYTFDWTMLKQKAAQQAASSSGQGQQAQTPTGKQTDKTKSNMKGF

In the case of `O=C(Cc1ccc(F)cc1)Nc1cc(-c2[nH]c3c(c2Nc2ccccc2)C(=O)NC(C(F)(F)F)C3)ccn1` (racemic) [Example 43, N-{4-[3-anilino-4-oxo-6-(trifluoromethyl)-4,5,6,7-tetrahydro-1H-pyrrolo[3,2-c]pyridin-2-yl]pyridin-2-yl}-2-(4-fluorophenyl)acetamide], the IC50 worked out at 2000 nM in experiment [1], 7.12 nM at human CSNK1D, 3.52 nM on human CSNK1A1 [2] and 67.5 nM at human CSNK1A1 [3].
On the same counts, the results for `CN1C(=O)c2c([nH]c(-c3ccnc(NC(=O)C(CC(F)F)c4ccc(F)cc4)c3)c2Nc2ccccc2F)CC1(C)C` (racemic) [Example 45, 4,4-difluoro-N-{4-[3-(2-fluoroanilino)-5,6,6-trimethyl-4-oxo-4,5,6,7-tetrahydro-1H-pyrrolo[3,2-c]pyridin-2-yl]pyridin-2-yl}-2-(4-fluorophenyl)butanamide] are above 20000 nM, 13.2 nM, 16.3 nM and 273 nM.
As to `CC1(C)Cc2[nH]c(-c3ccnc(NC(=O)C(CC(F)F)c4ccc(F)cc4)c3)c(Nc3ccccc3)c2C(=O)N1` (racemic) [Example 48, N-[4-(3-anilino-6,6-dimethyl-4-oxo-4,5,6,7-tetrahydro-1H-pyrrolo[3,2-c]pyridin-2-yl)pyridin-2-yl]-4,4-difluoro-2-(4-fluorophenyl)butanamide], the IC50 in experiment [1] stood at 14500 nM; at human CSNK1D, 13.4 nM; on human CSNK1A1 [2], 7.69 nM; at human CSNK1A1 [3] it was 37 nM.
Take `O=C1NC2(CCC2)Cc2[nH]c(-c3ccnc(NC(=O)C(CC(F)F)c4ccc(F)cc4)c3)c(Nc3ccccc3)c21` (racemic) [Example 54, N-[4-(3′-anilino-4′-oxo-1′,4′,5′,7′-tetrahydrospiro[cyclobutane-1,6′-pyrrolo[3,2-c]pyridin]-2′-yl)pyridin-2-yl]-4,4-difluoro-2-(4-fluorophenyl)butanamide]: the IC50 is above 20000 nM in experiment [1], 5.5 nM on human CSNK1D, 4.62 nM at human CSNK1A1 [2] and 14.6 nM on human CSNK1A1 [3].
With `CN(C)CCCC(C(=O)Nc1cc(-c2[nH]c3c(c2Nc2ccccc2)C(=O)N(C)CC3)ccn1)c1ccccc1` (racemic) [Example 58, N-[4-(3-anilino-5-methyl-4-oxo-4,5,6,7-tetrahydro-1H-pyrrolo[3,2-c]pyridin-2-yl)pyridin-2-yl]-5-(dimethylamino)-2-phenylpentanamide], the IC50 is above 20000 nM in experiment [1], 40.6 nM at human CSNK1D, 12.4 nM on human CSNK1A1 [2] and 1200 nM at human CSNK1A1 [3].
For `CN1CCc2[nH]c(-c3ccnc(NC(=O)C(CC(F)F)c4ccc(F)cc4)c3)c(Nc3ccccc3)c2C1=O` (racemic) [Example 61, N-[4-(3-anilino-5-methyl-4-oxo-4,5,6,7-tetrahydro-1H-pyrrolo[3,2-c]pyridin-2-yl)pyridin-2-yl]-4,4-difluoro-2-(4-fluorophenyl)butanamide], the IC50 turned out to be 8020 nM in experiment [1], 7.68 nM at human CSNK1D, 5.11 nM at human CSNK1A1 [2] and 21.9 nM at human CSNK1A1 [3].
Turning to `CC(C(=O)Nc1cc(-c2[nH]c3c(c2Nc2ccccc2)C(=O)N(C)CC3)ccn1)c1ccncc1` (racemic) [Example 72, N-[4-(3-anilino-5-methyl-4-oxo-4,5,6,7-tetrahydro-1H-pyrrolo[3,2-c]pyridin-2-yl)pyridin-2-yl]-2-(pyridin-4-yl)propanamide], the IC50 was determined as 7590 nM in experiment [1], 6.09 nM on human CSNK1D, 3.97 nM at human CSNK1A1 [2] and 66.4 nM at human CSNK1A1 [3].
As for `CCC(C(=O)Nc1cc(-c2[nH]c3c(c2Nc2ccccc2)C(=O)N(C)CC3)ccn1)c1ccc(F)cc1` (racemic) [Example 75, N-[4-(3-anilino-5-methyl-4-oxo-4,5,6,7-tetrahydro-1H-pyrrolo[3,2-c]pyridin-2-yl)pyridin-2-yl]-2-(4-fluorophenyl)butanamide], the IC50 is above 20000 nM in experiment [1], 8.28 nM at human CSNK1D, 5.49 nM on human CSNK1A1 [2] and 164 nM on human CSNK1A1 [3].
For `CN1CCc2[nH]c(-c3ccnc(NC(=O)Cc4ccc(N(C)C)cc4)c3)c(Nc3ccccc3)c2C1=O` [Example 84, N-[4-(3-anilino-5-methyl-4-oxo-4,5,6,7-tetrahydro-1H-pyrrolo[3,2-c]pyridin-2-yl)pyridin-2-yl]-2-[4-(dimethylamino)phenyl]acetamide], the values for the IC50 at human CSNK1D, on human CSNK1A1 [2] and at human CSNK1A1 [3] were 8.5 nM, 2.64 nM and 217 nM, respectively.
